Measurements from paper PMC11460631, “Inhibition of transient receptor potential vanilloid 3 channels by antimalarial hydroxychloroquine alleviates TRPV3-dependent dermatitis” (The Journal of Biological Chemistry, 2024).

Tests used:
[1] = target: T1, TRPV3 (Homo sapiens, UniProt Q8NET8); experiment: Calcium imaging (Fluo-4/AM) of TRPV3-expressing HEK293T cells; assay type: cell-based
T1 construct: YFP or GFP; expressed in transfected cells; host or cells: HEK293T
T1 sequence (Q8NET8 1-790): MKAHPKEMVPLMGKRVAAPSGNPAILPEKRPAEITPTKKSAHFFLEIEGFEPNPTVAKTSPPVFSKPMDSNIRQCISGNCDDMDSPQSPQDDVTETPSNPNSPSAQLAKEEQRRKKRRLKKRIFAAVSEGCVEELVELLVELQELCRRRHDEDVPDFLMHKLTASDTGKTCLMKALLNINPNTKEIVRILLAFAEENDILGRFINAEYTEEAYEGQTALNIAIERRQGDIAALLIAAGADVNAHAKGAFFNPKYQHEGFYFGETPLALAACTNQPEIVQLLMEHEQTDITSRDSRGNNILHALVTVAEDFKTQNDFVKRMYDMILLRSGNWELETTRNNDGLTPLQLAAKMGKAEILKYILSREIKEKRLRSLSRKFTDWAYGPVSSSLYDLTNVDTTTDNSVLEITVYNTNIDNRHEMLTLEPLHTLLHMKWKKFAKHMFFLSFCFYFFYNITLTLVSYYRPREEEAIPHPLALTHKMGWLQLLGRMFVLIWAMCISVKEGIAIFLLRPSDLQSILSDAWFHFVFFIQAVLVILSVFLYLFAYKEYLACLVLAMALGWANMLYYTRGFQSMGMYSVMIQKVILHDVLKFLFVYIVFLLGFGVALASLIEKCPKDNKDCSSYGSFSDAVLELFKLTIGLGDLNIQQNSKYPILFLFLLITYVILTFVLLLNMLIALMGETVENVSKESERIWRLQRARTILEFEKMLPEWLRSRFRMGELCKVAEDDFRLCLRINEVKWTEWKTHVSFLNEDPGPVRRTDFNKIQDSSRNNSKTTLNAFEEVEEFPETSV
Procedure: (§1) HEK293T cells are cultured using Dulbecco's modified Eagle's medium containing 10% fetal bovine serum and 1% penicillin-streptomycin in a cell incubator with 5% CO2 at 37 °C. Plasmids of murine TRPV1, TRPV4, TRPM8, and human TRPV3, TRPA1 are labeled with YFP or GFP as indicators for subsequent electrophysiological recordings. Complementary DNA constructs of ion channels were transiently transfected with Lipofectamine 3000 (Invitrogen). And 12 to 18 h after transient transfection, electrophysiological recordings were performed.
Calcium imaging assays were performed as described previously ([37]). Transiently transfected HEK293 cells seeded on 25 mm coverslips were washed twice with an extracellular solution containing 140 mM NaCl, 5 mM KCl, 2 mM MgCl2, 2 mM CaCl2, 10 mM glucose, and 10 mM Hepes (pH 7.4), followed by incubation in 2 ml of extracellular solution supplemented with 2 μM Fluo-4/AM as a Molecular Probes at room temperature for 60 min. Fluorescence images of HEK293T cells were acquired with a Nikon Eclipse Ti2 microscope with an optiMOS charge-coupled device camera controlled by the Ocular Software ([…]; https://www.photometrics.com/products/ocular).

[2] = target: T1, TRPV3; experiment: Single-channel recordings of TRPV3 in the inside-out configuration; assay type: cell-based; conditions: 1 mM 2-APB alone, −80 mV
Procedure: as §1
(§2) Patch-clamp recordings were carried out with a HEKA EPC10 amplifier controlled by PatchMaster software (HEKA; https://www.heka.com/products/products_main.html#soft_pm) ([36]). Patch pipettes were prepared from borosilicate glass and fire-polished to the resistance of 3 to 8 MΩ by P-97 puller for whole-cell recordings. For single-channel recordings, patch pipettes were fire-polished to a higher resistance of 6 to 10 MΩ. Both bath solution and pipette solution contained 130 mM NaCl, 10 mM glucose, 0.2 mM EDTA, and 3 mM Hepes and were adjusted to pH 7.2 to 7.4 with NaOH. Whole-cell recordings and single-channel recordings were performed at ± 80 mV. The current was sampled at 10 kHz and filtered at 2.9 kHz. All recordings were performed at room temperature (25 °C). A gravity-driven system (RSC-200, Bio-Logic) with freely rotated perfusion tubes was used for the perfusion of ligands. Bath and ligand solutions were delivered through separate tubes to minimize the mixing of solutions. Patch pipette holding cells were placed in front of the perfusion tube outlet for perfusion. Igor Pro versions 5.05 and 9.05 (WaveMetrics; https://www.wavemetrics.com/products/igorpro) were used to analyze the data.

[3] = target: T1, TRPV3; experiment: Whole-cell patch-clamp recordings of TRPV3 currents in transfected HEK293T cells; assay type: cell-based; conditions: 1 mM agonist, whole-cell, n = 5 cells
Procedure: as §1
as §2, with “perfusion.” for “perfusion. Igor Pro versions 5.05 and 9.05 (WaveMetrics; https://www.wavemetrics.com/products/igorpro) were used to analyze the data.”
All data from whole-cell recordings were analyzed in Igor Pro (WaveMetrics). IC50 values were determined by fitting the Hill equation to concentration-response relationships. Data are shown as mean ± SEM. Statistical significance between two groups was conducted with an unpaired two-tailed t test, and statistical significance among multiple groups was conducted with one-way ANOVA using Dunnett’s multiple comparisons test or Tukey's post hoc test. Differences were regarded as statistically significant with ∗, p < 0.05; ∗∗, p < 0.01; ∗∗∗, p < 0.001; ∗∗∗∗, and p < 0.0001; N.S., no significance.

[4] = system: C57BL/6J male mice; experiment: Carvacrol-induced AD-like mouse model: skin appearance scores and H&E epidermal thickness; assay type: in vivo; conditions: score of 0 to 4, topical, 5 days; for erythema score: 2% carvacrol alone or with HCQ 2 mg/ml or DXM 1 mg/ml
Procedure: (§3) We therefore generated a carvacrol-induced AD mouse model to test the effect of HCQ.
To investigate the effect of HCQ on carvacrol-induced dermatitis in animals, C57BL/6J male mice (aged 6 weeks) were obtained from the Animal Experimental Center of Hangzhou Medical College (Hangzhou, Zhejiang Province). Mice were housed and maintained in an environment with a 12-h light/dark cycle and a controlled temperature of 22.0 ± 2.0 °C. Food and water were accessible ad libitum. All the animal procedures were approved by the Institutional Animal Care & Use Committee of Zhejiang Center of Laboratory Animals (ZJCLA).
(§4) To generate an AD-like mice model, 2% carvacrol (dissolved in 30% ethanol solution) was topically smeared onto the mice dorsum 1 day after hair removal with a depilatory cream (Vetin Depilatory Cream). Mice received a topical administration of an equal volume (200 μl) of 2% carvacrol or in the presence of 2 mg/ml HCQ. […] After the application of carvacrol for 5 days, the external appearance of mice was photographed and then sampled. The external appearance was graded based on three aspects: thickness, erythema/bleeding, and dryness/desquamation, with severity assessed on a score of 0 to 4. The degree of thickness was measured by the thickness of the skin in H&E staining. Skin tissues were either fixed in 4% paraformaldehyde or placed in PBS buffer containing 1% protease inhibitor, facilitating subsequent steps of paraffin embedding or ELISA experiments.
Mice were sacrificed 24 h after the last dose of treatment. Mouse dorsal skin was removed with scissors and forceps before being fixed with 4% paraformaldehyde. Paraffin-embedded tissues were sectioned and stained with H&E. Pictures of stained sections were acquired with a Nikon Eclipse Ti-S microscope with a charge-coupled device camera (DS-Ri2, Nikon).

[5] = system: TNF-α, IL-6, IgE, IL-4 in mouse dorsal skin tissues; experiment: Carvacrol-induced AD-like mouse model: inflammatory factors by ELISA; assay type: in vivo
Procedure: as §3, §4
Animal skin tissues were placed in PBS buffer containing 1% protease inhibitors, then homogenized, and centrifuged for supernatants. Cytokine concentrations of supernatants (IL-4, IL-6, TNF-α, and IgE) were measured using ELISA kits (Tsingke) according to the manufacturer's instructions. The absorption at 450 nm was measured by a microplate reader (Thermo Multiskan MK3).

[6] = DXM 1 mg/ml topical with 2% carvacrol

## NCCOB(c1ccccc1)c1ccccc1 [2-APB, 2-aminoethoxydiphenylborate]
[1]; 1 mM 2-APB alone
  calcium influx, area under the curve (AUC) of 2-APB activation: 22.92 ± 1.44
[2]
  TRPV3 channel open probability (Po): 0.89 ± 0.06
  single-channel conductance: 90.69 ± 2.67 pS
[3]
  wash-off time constant of TRPV3 current: 4.05 ± 0.73 s

## C[C@H](CCC(=O)O)C[C@H](C)C[C@H](C)C(=O)/C=C(\O)[C@H](C)C[C@H](C)C/C=C/[C@@H](C)[C@@H](O)[C@@H](C)[C@@H](O)C[C@@H]1CC[C@@](C)([C@H]2CC[C@@](C)([C@@H](C)O)O2)O1 [ionomycin]
[1]; 10 μM ionomycin
  calcium influx, area under the curve (AUC), positive control: 41.59 ± 1.50

## Cc1ccc(C(C)C)cc1O [carvacrol]
[4]; 2% carvacrol alone or with HCQ 2 mg/ml
  dry desquamation score: 3.17 ± 0.31
[4]
  erythema score: 3.67 ± 0.21
[3]
  wash-off time constant of TRPV3 current: 1.43 ± 0.38 s

## C[C@@H]1C[C@H]2[C@@H]3CCC4=CC(=O)C=C[C@]4(C)[C@@]3(F)[C@@H](O)C[C@]2(C)[C@@]1(O)C(=O)CO [DXM, dexamethasone]
[5]; [6]
  effect on IL-6 and TNF-α: no significant effect
  effect on serum IgE levels: reduces
[5]; mouse tissues, HCQ 2 mg/ml or DXM 1 mg/ml topical with 2% carvacrol
  IL-4 levels compared to the model group: effectively reduced
[4]
  erythema score: 2.83 ± 0.17
